The text below walks through data of patent US10864211B2, “Hydroxy isoxazole compounds useful as GPR120 agonists” (Merck Sharp & Dohme Corp., priority 2016, dated 2020).

This test concerns the target T1, human GPR120 (Homo sapiens, UniProt Q5NUL3).
T1 construct: expressed in transfected cells; host or cells: CHO-K1
T1 sequence (Q5NUL3 1-361): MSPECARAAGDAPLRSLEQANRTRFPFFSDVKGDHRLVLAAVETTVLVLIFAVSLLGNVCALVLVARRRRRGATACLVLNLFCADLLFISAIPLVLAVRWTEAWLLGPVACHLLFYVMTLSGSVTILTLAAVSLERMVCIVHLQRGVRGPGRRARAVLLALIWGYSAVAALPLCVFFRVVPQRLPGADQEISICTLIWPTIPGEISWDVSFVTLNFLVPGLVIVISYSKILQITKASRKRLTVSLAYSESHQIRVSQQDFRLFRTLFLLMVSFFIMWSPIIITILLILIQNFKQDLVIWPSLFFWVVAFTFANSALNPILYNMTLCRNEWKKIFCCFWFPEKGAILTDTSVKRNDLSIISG
The test is described as follows: Human GPR120 IP1 assay (inositol phosphate turnover). Format: cell-based. The settings on record: IP1 accumulation in CHO-K1 cells stably expressing the short form of human GPR120. From the text:
The binding of small molecule agonists to the G-protein-coupled receptor GPR120 activates phospholipase C, and leads to the generation of inositol 1,4,5-trisphosphate (InsP3 or IP3). IP3 is subsequently de-phosphorylated to IP1, which accumulates in cells and is stable in the presence of lithium chloride.
In the present method, agonist-induced activation of the human and rat GPR120 receptor was monitored by measuring the accumulation of IP1 in CHO-K1 cells that were stably expressing the short form of human GPR120 (Accession #NM_001195755) or HEK293 cells stably expressing rat GPR120 (Accession #NM_001047088). Following agonist addition, GPR120 activation and subsequent accumulation of IP1 was measured using a homogeneous Time Resolved Fluorescence-based ELISA commercially available from CisBio (IP-one ELISA Kit). The IP-One ELISA was a competitive immunoassay which uses IP1 labeled with […] and a terbium cryptate-labeled anti-IP1 monoclonal antibody. […] The signal loss was then back calculated to IP1 concentration using an IP1 standard curve. Determination of IP1 concentration was a direct measure of GPR120 activation and was used to determine compound potency (EC50).
Human GPR120 stable cell-lines were generated in CHO cells. The expression plasmids were transfected using lipofectamine (Life Technologies) following manufacturer's instructions. Stable cell-lines were generated following drug selection and single cell cloning. Rat GPR120 stable cell-lines were generated in HEK cells using the Jump-In™ cell engineering platform (Life Technologies) following manufacturer's instructions. Stable cell-lines were generated following drug selection and single cell cloning.
The assay was performed in 384-well format. CHO cells stably expressing human GPR120 were plated at 20,000 cells per well in growth medium (DMEM/F12, 10% fetal calf serum). HEK293 cells stably expressing rat GPR120 were plated at […] per well in growth medium (DMEM, 10% fetal calf serum). Cell plates were then incubated 16 hours at 37 degrees in a 5% CO2 incubator. Measurement of Inositol Phosphate Turnover (IP1) was performed using the CisBio IP-One kit (Part number 62IPAPEB). After the 16 hour incubation, the growth media was removed by centrifugation using the BlueWasher (AusWasher GUI Ver. v1.0.1.8) Protocol #21-“Light Dry” and 10 μl of stimulation buffer (prepared as described in the kit) was added to each well. In a separate plate, compounds were diluted in DMSO (200-fold over the final concentration in the assay well) and 50 nl was acoustically transferred to the appropriate well in the assay cell plate. The plates were then incubated for 60 minutes at 37 degrees in a 5% CO2 incubator. 10 μl of detection buffer (also prepared as described in the IP-One kit) was added to each well and the plates were incubated at room temperature for 60 minutes in the dark. The plates were then read in a Perkin ElmerEnVision or equivalent reader able to measure FRET. Fluorescent ratio of emission at 665 and 620 nm was then converted to the IP1 concentration by back calculating from an IP1 standard curve prepared at the time of the assay. The data was normalized to % activity using a reference compound, and the EC50 values were determined using a standard 4-parameter fit.

Counter-ions that a name gives are not always drawn.

Usually EC50 stands for the concentration at which the effect is half-maximal. Read a high EC50 as a less potent agent.

`Oc1cc(-c2ccc(OC3CC(OCc4ccc(F)cc4F)C3)nc2)on1` (mixture of isomers) [Example 72, 5-[6-({cis-3-[(2,4-difluorobenzyl)oxy]cyclobutyl}oxy)pyridin-3-yl]isoxazol-3-ol (mixture of isomers predominantly cis)] yielded an EC50 of 29 nM. This counts as double-digit nanomolar.
The compound `N#Cc1cccc(COC2CC(Oc3ccc(-c4cc(O)no4)cn3)C2)c1` (mixture of isomers) [Example 73, 3-{[(cis-3-{[5-(3-hydroxyisoxazol-5-yl)pyridin-2-yl]oxy}cyclobutyl)oxy]methyl}benzonitrile (mixture of isomers predominantly cis)] returned an EC50 of 166 nM.
Compound `Oc1cc(-c2ccc(OC3CC(OCc4cc(F)ccc4C(F)(F)F)C3)nc2)on1` (mixture of isomers) [Example 76, ammonium 5-{6-[(cis-3-{[5-fluoro-2-(trifluoromethyl)benzyl]oxy}cyclobutyl)oxy]pyridin-3-yl)isoxazol-3-olate (mixture of isomers predominantly cis)] displayed an EC50 of 138 nM.
In turn, `N#Cc1cccc(COC2CC(Oc3ccc(-c4cc(O)no4)cn3)C2)c1F` (mixture of isomers) [Example 77, ammonium 5-[6-({cis-3-[(3-cyano-2-fluorobenzyl)oxy]cyclobutyl}oxy)pyridin-3-yl]isoxazol-3-olate (mixture of isomers predominantly cis)] had an EC50 of 388 nM. Compared with the last compound, the EC50 is about 2.8-fold higher.
Turning to `CC(OC1CC(Oc2ccc(-c3cc(O)no3)cn2)C1)c1ccccc1` (mixture of isomers) [Example 78, 5-(6-{[3-(1-phenylethoxy)cyclobuty]oxy}pyridin-3-yl)isoxazol-3-ol (mixture of isomers)], the EC50 stood at 305 nM. The EC50 values of the last two compounds are within 1.5-fold of each other.
The same measure for `Oc1cc(-c2cnc(OC3CC(OCc4cc(C(F)(F)F)ccc4F)C3)cn2)on1` (mixture of isomers) [Example 79, 5-{5-[(cis-3-{[2-fluoro-5-(trifluoromethyl)benzyl]oxy}cyclobutyl)oxy]pyrazin-2-yl}isoxazol-3-ol (mixture of isomers predominantly cis)]: 13 nM; for `Oc1cc(-c2cnc(OC3CC(OCC4CCCCC4)C3)cn2)on1` (mixture of isomers) [Example 80, 5-(5-{[cis-3-(cyclohexylmethoxy)cyclobutyl]oxy}pyrazin-2-yl)isoxazol-3-ol (mixture of isomers predominantly cis)]: 23 nM.
Take `Oc1cc(-c2cnc(OC3CC(OCC4CCCC4)C3)cn2)on1` (mixture of isomers) [Example 81, sodium 5-(5-{[cis-3-(cyclopentylmethoxy)cyclobutyl]oxy}pyrazin-2-yl)isoxazol-3-olate (mixture of isomers predominantly cis)]: the EC50 came out at 31 nM. This EC50 and that of the compound before are within 1.5-fold of each other.
The same measure for `Oc1cc(-c2cnc(O[C@H]3C[C@@](F)(c4cc(OC(F)(F)F)ccc4F)C3)cn2)on1` (single isomer, unassigned) [Example 89, 5-[5-({trans-3-fluoro-3-[2-fluoro-5-(trifluoromethoxy)phenyl]-cyclobutyl}oxy)pyrazin-2-yl]isoxazol-3-ol]: 51 nM; for `Oc1cc(-c2ccc(OC3CCC(c4cccc(OC(F)(F)F)c4)C3)nc2)on1` (single isomer, unassigned) [Example 116, 5-(3-hydroxyisoxazol-5-yl)-2-({3-[3-(trifluoromethoxy)-phenyl]cyclopentyl}oxy)pyridinium trifluoroacetate]: 18 nM.
`Oc1cc(-c2ccc(OC3CCC(c4cccc(OC(F)(F)F)c4)C3)nc2)on1` (single isomer, unassigned) [Example 117, 5-(3-hydroxyisoxazol-5-yl)-2-({3-[3-(trifluoromethoxy)phenyl]cyclopentyl}oxy)pyridinium trifluoroacetate] registered an EC50 of 59 nM.
Compound `Oc1cc(-c2ccc(OC3CCC(c4cccc(OC(F)(F)F)c4)C3)nc2)on1` (single isomer, unassigned) [Example 118] yielded a 50% effective concentration (EC50) of 34 nM.
As for `Oc1cc(-c2ccc(OC3CCC(c4cccc(OC(F)(F)F)c4)C3)nc2)on1` (single isomer, unassigned) [Example 119, 5-(6-((3-(3-(trifluoromethoxy)phenyl)cyclopentyl)oxy)pyridin-3-yl)isoxazol-3-ol], the response was half-maximal at 12 nM (EC50).
As to `Oc1cc(-c2cnc(O[C@H]3C[C@@H](c4ccc(C(F)F)c(F)c4)C3)cn2)on1` [Example 1, 5-[5-({cis-3-[4-(difluoromethyl)-3-fluorophenyl]cyclobutyl}oxy)pyrazin-2-yl]isoxazol-3-ol], the EC50 was 8.7 nM.
In turn, `Oc1cc(-c2cnc(O[C@H]3C[C@H](c4ccc(C(F)F)c(F)c4)C3)cn2)on1` [Example 2, 5-[5-({trans-3-[4-(difluoromethyl)-3-fluorophenyl]cyclobutyl}oxy)pyrazin-2-yl]isoxazol-3-ol] registered an EC50 of 178 nM.
Then `Oc1cc(-c2cnc(O[C@H]3C[C@@H](c4cc(F)cc(OC(F)(F)F)c4)C3)cn2)on1` [Example 3, ammonium 5-[5-({cis-3-[3-fluoro-5-(trifluoromethoxy)-phenyl]cyclobutyl}oxy)pyrazin-2-1]isoxazol-3-olate], with 102 nM; and `Oc1cc(-c2cnc(O[C@H]3C[C@@H](c4ccc(OC5CC5)cc4)C3)cn2)on1` [Example 4, sodium 5-[5-({cis-3-[4-(cyclopropyloxy)phenyl]cyclobutyl}-oxy)pyrazin-2-yl]isoxazol-3-olate], with 83 nM.
Compound `Oc1cc(-c2cnc(O[C@H]3C[C@@H](c4nc(C(F)(F)F)cs4)C3)cn2)on1` [Example 5, 5-[5-({cis-3-[4-(trifluoromethyl)-1,3-thiazol-2-yl]cyclobutyl}oxy)pyrazin-2-yl]isoxazol-3-ol] came in with an EC50 of 82 nM.
Then `Oc1cc(-c2cnc(O[C@H]3C[C@@H](c4ncc(C(F)(F)F)s4)C3)cn2)on1` [Example 6, 5-[5-({cis-3-[5-(trifluoromethyl)-1,3-thiazol-2-yl]cyclobutyl}oxy)pyrazin-2-yl]isoxazol-3-ol], with 129 nM; and `Oc1cc(-c2cnc(O[C@H]3C[C@@H](c4ccc(Br)cc4)C3)cn2)on1` [Example 7, ammonium 5-(5-{[cis-3-(4-bromophenyl)cyclobutyl]oxy}pyrazin-2-yl)isoxazol-3-olate], with 11 nM; and `Oc1cc(-c2ccc(O[C@H]3C[C@H](c4ncc(C(F)(F)F)cc4F)C3)nc2)on1` [Example 8, sodium 5-[6-({trans-3-[3-fluoro-5-(trifluoromethyl)pyridin-2-yl]-cyclobutyl}oxy)pyridin-3-yl]isoxazol-3-olate], with 303 nM.
On to `Oc1cc(-c2ccc(O[C@H]3C[C@@H](c4ncc(C(F)(F)F)cc4F)C3)nc2)on1` [Example 9, sodium 5-[6-({cis-3-[3-fluoro-5-(trifluoromethyl)pyridin-2-yl]-cyclobutyl}oxy)pyridin-3-yl]isoxazol-3-olate], for which the EC50 was 23 nM. Compared with the last compound, the EC50 is about 13-fold lower.
Regarding `Oc1cc(-c2cnc(O[C@H]3C[C@@H](c4ccc(F)cc4)C3)cn2)on1` [Example 10, sodium 5-(5-{[cis-3-(4-fluorophenyl)cyclobutyl]oxy}pyrazin-2-yl)isoxazol-3-olate], the EC50 worked out at 34 nM. The EC50 values of the last two compounds are within 1.5-fold of each other.
In turn, `Oc1cc(-c2ccc(O[C@H]3C[C@@H](c4cc(OC(F)(F)F)ccc4F)C3)nc2)on1` [Example 11, ammonium 5-[6-({cis-3-[2-fluoro-5-(trifluoromethoxy)phenyl]cyclo-butyl}oxy)pyridin-3-yl]isoxazol-3-olate] registered an EC50 of 112 nM.
